Results published in the supplement of paper PMC10307832.

Key:
Assay in all cases: relative viability (nuclei count vs DMSO), 5 days (fraction); higher = more cells survive
Temozolomide + Foretinib = compound: Cn1nnc2c(C(N)=O)ncn2c1=O [Temozolomide] + COc1cc2c(Oc3ccc(NC(=O)C4(C(=O)Nc5ccc(F)cc5)CC4)cc3F)ccnc2cc1OCCCN1CCOCC1 [Foretinib] (partner 0.25 µM)
Method in brief: (§1)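 Lung cancer cell lines were seeded in 1536-well plates and dosed by pin tool the next day, with either a single drug or a fixed anchor-drug dose combined with five library-drug doses (not always all listed) spaced in √10 steps. Five days later, one step fixed the cells and stained their nuclei (final 0.05% Triton X-100, 1% formaldehyde, 1 ug/ml Hoechst), and nuclei were counted on 4× images. Relative viability is the nuclei count in treated wells divided by the count in vehicle wells, and each value is the median of duplicate plates.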

AZD5582 + Alpelisib = compound: C[C@@H](C(=O)N[C@@H](C1CCCCC1)C(=O)N2CCC[C@H]2C(=O)N[C@@H]3[C@@H](CC4=CC=CC=C34)OCC#CC#CCO[C@@H]5CC6=CC=CC=C6[C@@H]5NC(=O)[C@@H]7CCCN7C(=O)[C@H](C8CCCCC8)NC(=O)[C@H](C)NC)NC [AZD5582] + Cc1nc(NC(=O)N2CCC[C@H]2C(N)=O)sc1-c1ccnc(C(C)(C)C(F)(F)F)c1 [Alpelisib] (partner 2 µM)
Method in brief: as §1

AZD5582 + Dasatinib = compound: C[C@@H](C(=O)N[C@@H](C1CCCCC1)C(=O)N2CCC[C@H]2C(=O)N[C@@H]3[C@@H](CC4=CC=CC=C34)OCC#CC#CCO[C@@H]5CC6=CC=CC=C6[C@@H]5NC(=O)[C@@H]7CCCN7C(=O)[C@H](C8CCCCC8)NC(=O)[C@H](C)NC)NC [AZD5582] + Cc1nc(Nc2ncc(C(=O)Nc3c(C)cccc3Cl)s2)cc(N2CCN(CCO)CC2)n1 [Dasatinib] (partner 0.075 µM)
Method in brief: as §1

[1] = compound: Cn1nnc2c(C(N)=O)ncn2c1=O [Temozolomide] + N=C(N)NC(=N)NCCc1ccccc1 [Phenformin] (partner 250 µM)
Method in brief: as §1

Cell Line	relative viability (Temozolomide + Foretinib; first compound 0.2 µM)	relative viability (Temozolomide + Foretinib; first compound 0.6325 µM)	relative viability (Temozolomide + Foretinib; first compound 2 µM)	relative viability (Temozolomide + Foretinib; first compound 6.325 µM)	relative viability (Temozolomide + Foretinib; first compound 20 µM)	relative viability (AZD5582 + Alpelisib; first compound 0.001581 µM)	relative viability (AZD5582 + Alpelisib; first compound 0.005 µM)	relative viability (AZD5582 + Alpelisib; first compound 0.01581 µM)	relative viability (AZD5582 + Alpelisib; first compound 0.05 µM)	relative viability (AZD5582 + Dasatinib; first compound 0.001581 µM)	relative viability (AZD5582 + Dasatinib; first compound 0.005 µM)	relative viability (AZD5582 + Dasatinib; first compound 0.01581 µM)	relative viability (AZD5582 + Dasatinib; first compound 0.05 µM)	relative viability ([1]; first compound 0.2 µM)	relative viability ([1]; first compound 0.6325 µM)	relative viability ([1]; first compound 2 µM)	relative viability ([1]; first compound 6.325 µM)	relative viability ([1]; first compound 20 µM)
NCI-H1563	0.762	0.967	0.886	0.915	0.927	1.02	0.893	0.858	1.01	0.412	0.456	0.447	0.461	0.671	0.689	0.668	0.602	0.643
NCI-H1651	0.914	0.725	0.782	0.759	0.839	1.03	1.02	0.855	1.15	0.428	0.478	–	0.552	0.388	0.332	0.353	0.268	0.351
NCI-H1666	0.917	0.868	0.837	0.611	0.679	0.851	0.833	1.08	1.03	0.656	0.814	0.757	0.846	0.575	0.584	0.585	0.526	0.594
NCI-H1734	0.874	0.929	0.959	0.754	0.859	0.729	0.761	0.705	0.903	0.468	0.548	0.434	0.664	0.474	0.454	0.437	0.383	0.342
NCI-H1755	0.979	0.93	0.908	0.873	0.722	0.875	0.918	0.874	0.996	0.398	0.456	0.356	0.363	0.68	0.598	0.621	0.547	0.532
NCI-H1793	–	0.583	0.935	0.432	0.615	0.637	0.856	0.69	0.887	0.32	0.429	0.292	0.261	–	0.359	0.394	0.297	0.323
NCI-H1915	1.11	1.04	1	0.733	0.429	1.01	1.06	1.09	1.13	0.324	0.339	0.267	0.328	0.393	0.385	0.35	0.268	0.259
NCI-H1944	0.756	0.922	0.847	0.875	0.795	0.834	1.05	0.793	1.11	0.244	0.228	0.227	0.238	0.219	0.183	0.233	0.19	0.2
NCI-H1975	0.997	0.936	1.09	0.917	0.931	0.725	0.894	0.611	0.964	0.322	0.447	0.428	0.408	0.444	0.423	0.438	0.417	0.423
